In the supplement of paper PMC4862054:

Columns and labels:
Settings in all cases: incubation time: 72 h
[1] = tested on: CAL-148; assay: normalised response (% of control), CellTiter-Glo; higher = more viable cells (100 = DMSO, 0 = benzethonium chloride kill control)
Protocol: (§1)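 DSRT, 72 h incubation, CellTox Green / CellTiter-Glo readout. Signal is normalised to DMSO and benzethonium chloride controls. Value is the normalised response at dose 3.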

[2] = tested on: MDA-MB-436; assay: as above
Protocol: as §1

[3] = tested on: Hs578T; assay: as above
Protocol: as §1

[4] = tested on: MDA-MB-231; assay: as above
Protocol: as §1

[5] = tested on: HCC1143; assay: as above
Protocol: as §1

[6] = tested on: MCF-10A; assay: as above
Protocol: as §1

[7] = tested on: MDA-MB-453; assay: as above
Protocol: as §1

[8] = tested on: MDA-MB-468; assay: as above
Protocol: as §1

[9] = tested on: HDQ-P1; assay: as above
Protocol: as §1

[10] = tested on: HCC1937; assay: as above
Protocol: as §1

[11] = tested on: SK-BR-3; assay: as above
Protocol: as §1

[12] = tested on: BT-474; assay: as above
Protocol: as §1

[13] = tested on: DU-4475; assay: as above
Protocol: as §1

[14] = tested on: MFM-223; assay: as above
Protocol: as §1

[15] = tested on: CAL-85-1; assay: as above
Protocol: as §1

[16] = tested on: BT-549; assay: as above
Protocol: as §1

[17] = tested on: CAL-51; assay: as above
Protocol: as §1

[18] = tested on: HCC1599; assay: as above
Protocol: as §1

[19] = tested on: CAL-120; assay: as above
Protocol: as §1

[20] = tested on: CAL-148; assay: normalised response (% of control), CellTox Green; higher = less cell death (100 = DMSO, 0 = benzethonium chloride kill control)
Method in brief: (§2)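 Breast cancer cell lines in 20 µl suspension were added to 384-well plates containing compound at 5 concentrations, spaced in 10-fold steps across a 10,000-fold range chosen for each compound, and incubated for 72 h. CellTox Green fluorescence was read at 485/520 nm, followed by CellTiter-Glo luminescence after 10 min at room temperature. Signals on each plate were normalised so that 0.1 % DMSO equals 100 and a positive kill control equals 0. Every value in the table is the normalised signal at one concentration of the series.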

[21] = tested on: MDA-MB-436; assay: as above
Method in brief: as §2

[22] = tested on: Hs578T; assay: as above
Method in brief: as §2

[23] = tested on: MDA-MB-231; assay: as above
Method in brief: as §2

[24] = tested on: HCC1143; assay: as above
Method in brief: as §2

[25] = tested on: MDA-MB-453; assay: as above
Method in brief: as §2

[26] = tested on: MDA-MB-468; assay: as above
Method in brief: as §2

[27] = tested on: HCC1937; assay: as above
Method in brief: as §2

[28] = tested on: BT-474; assay: as above
Method in brief: as §2

[29] = tested on: DU-4475; assay: as above
Method in brief: as §2

[30] = tested on: MFM-223; assay: as above
Method in brief: as §2

[31] = tested on: CAL-85-1; assay: as above
Method in brief: as §2

[32] = tested on: BT-549; assay: as above
Method in brief: as §2

[33] = tested on: CAL-51; assay: as above
Method in brief: as §2

[34] = tested on: HCC1599; assay: as above
Method in brief: as §2

[35] = tested on: CAL-120; assay: as above
Method in brief: as §2

[36] = tested on: MCF-10A; assay: as above
Method in brief: as §2

[37] = tested on: HDQ-P1; assay: as above
Method in brief: as §2

SMILES	normalised response [1]	normalised response [2]	normalised response [3]	normalised response [4]	normalised response [5]	normalised response [6]	normalised response [7]	normalised response [8]	normalised response [9]	normalised response [10]	normalised response [11]	normalised response [12]	normalised response [13]	normalised response [14]	normalised response [15]	normalised response [16]	normalised response [17]	normalised response [18]	normalised response [19]	normalised response [20]	normalised response [21]	normalised response [22]	normalised response [23]	normalised response [24]	normalised response [25]	normalised response [26]	normalised response [27]	normalised response [28]	normalised response [29]	normalised response [30]	normalised response [31]	normalised response [32]	normalised response [33]	normalised response [34]	normalised response [35]	normalised response [36]	normalised response [37]
CN(c1ccccc1CNc1nc(Nc2ccc3c(c2)CC(=O)N3)ncc1C(F)(F)F)S(C)(=O)=O (100 nM)	104%	91.9%	94.3%	89.6%	96.5%	86.2%	90.4%	88.5%	101%	96.5%	88.3%	89.8%	95.6%	95.5%	95.5%	97.9%	93.1%	98.3%	87.2%	99.2%	80.3%	104%	85.8%	84.4%	103%	115%	83.4%	94.5%	98.1%	103%	102%	97.5%	87.6%	94%	99.9%		
O=c1[nH]c(=O)n([C@H]2C[C@H](O)[C@@H](CO)O2)cc1F [Floxuridine] (100 nM)	110%	74.6%	28%	100%	103%	109%	116%	86.1%	90.8%	75.4%	71.4%	99.3%	103%	113%	57%	94.4%	57.2%	66.8%	99.3%		115%	103%	115%	63.4%	104%	96.2%	51.1%	102%	107%	98.5%	87.3%	114%	95.6%	113%	107%	97.8%	
COC1=C2C[C@@H](C)C[C@H](OC)[C@H](O)[C@@H](C)/C=C(\C)[C@H](OC(N)=O)[C@@H](OC)/C=C\C=C(/C)C(=O)NC(=CC1=O)C2=O [Geldanamycin] (100 nM)	118%	107%	107%	113%	104%	103%	113%	106%	102%	101%	105%	102%	106%	115%	108%	96.5%	84.7%	109%	109%	106%			103%	76.5%	106%		111%	100%	104%	95.2%	96.5%	99.4%	96%	106%	99.7%	95.5%	106%
CC(C)(C)c1cc(NC(=O)Nc2ccc(-c3cn4c(n3)sc3cc(OCCN5CCOCC5)ccc34)cc2)no1 [Quizartinib] (10 nM)	103%	109%	102%	108%	104%	105%	101%	103%	101%	98%	104%	109%	97.9%	105%	103%	108%	71.4%	89%	108%	108%	95.2%	107%	99.1%	125%	93.9%	137%		97.6%	99.3%	102%	107%	104%	89.8%	117%	94.6%	106%	92.7%
CCS(=O)(=O)c1cccc(-c2cc(C(=O)NC3CCN(C)CC3)c(C)c3[nH]c4ncc(C)cc4c23)c1 [TAK-901] (10 nM)	104%	110%	108%	101%	98.7%	104%	103%	94.7%	97%	93.4%	108%	102%	107%	109%	100%	101%	92.4%	120%	99.6%	105%	96%		100%	69%	101%	77.1%	120%	100%	101%	101%	95.7%	72.2%	98.6%	104%	103%	78.2%	108%
Cc1cc(C(C)Nc2ccccc2)c2nc(N3CCOCC3)cc(=O)n2c1 (stereo unspecified) [TGX-221] (100 nM)	100%	94%	93.9%	92.7%	96.4%	93.5%	93.2%	86.4%	98.7%	88.1%	99.7%	90.1%	95.8%	94%	99.7%	86.5%	65.8%	113%	97.2%	81%	97%	98.5%		74.4%	96%	52.6%	80.5%	89.3%	99.1%	99.2%	114%	92.5%	90.6%	95.3%	105%	108%	
